From patent US7294637B2 (Sepracor, Inc., priority 2000, dated 2007)
Where two headings read alike, the source gives them in different places.

Tests used:
serotonin transporter [1] = target: T1, serotonin transporter (Homo sapiens, UniProt P31645); assay: 5-HT uptake: displacement of serotonin ligands in vitro (methods of Gu et al.); assay type: binding
[2] = target: T2, norepinephrine transporter (Homo sapiens, UniProt P23975); assay: Functional activity, norephinephrine uptake inhibition in MDCK cell lines; assay type: cell-based
T2 sequence (P23975 whole entry): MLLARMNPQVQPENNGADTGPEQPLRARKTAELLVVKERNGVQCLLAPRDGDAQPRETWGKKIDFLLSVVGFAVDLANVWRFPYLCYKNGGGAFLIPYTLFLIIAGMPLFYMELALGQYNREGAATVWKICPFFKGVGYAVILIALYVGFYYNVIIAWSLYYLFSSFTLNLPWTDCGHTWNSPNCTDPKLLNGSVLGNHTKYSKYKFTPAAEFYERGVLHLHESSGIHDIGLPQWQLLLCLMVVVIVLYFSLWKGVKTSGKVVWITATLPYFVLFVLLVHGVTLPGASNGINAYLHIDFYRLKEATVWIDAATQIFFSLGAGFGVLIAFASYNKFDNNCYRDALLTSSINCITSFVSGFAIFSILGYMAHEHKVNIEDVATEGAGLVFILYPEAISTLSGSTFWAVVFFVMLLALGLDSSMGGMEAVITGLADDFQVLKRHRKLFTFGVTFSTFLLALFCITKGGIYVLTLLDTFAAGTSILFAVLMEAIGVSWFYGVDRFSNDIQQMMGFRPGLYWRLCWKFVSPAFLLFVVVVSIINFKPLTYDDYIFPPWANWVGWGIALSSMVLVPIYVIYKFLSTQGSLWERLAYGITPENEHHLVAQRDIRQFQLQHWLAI

DAT = DAT (Homo sapiens, UniProt Q01959); assay: cell-based; design: expressed in transfected cells; conditions: hDAT cell line; read-out: DA Uptake, Functional Assays (antagonism, EC50)
Chain of DAT (Q01959 whole entry): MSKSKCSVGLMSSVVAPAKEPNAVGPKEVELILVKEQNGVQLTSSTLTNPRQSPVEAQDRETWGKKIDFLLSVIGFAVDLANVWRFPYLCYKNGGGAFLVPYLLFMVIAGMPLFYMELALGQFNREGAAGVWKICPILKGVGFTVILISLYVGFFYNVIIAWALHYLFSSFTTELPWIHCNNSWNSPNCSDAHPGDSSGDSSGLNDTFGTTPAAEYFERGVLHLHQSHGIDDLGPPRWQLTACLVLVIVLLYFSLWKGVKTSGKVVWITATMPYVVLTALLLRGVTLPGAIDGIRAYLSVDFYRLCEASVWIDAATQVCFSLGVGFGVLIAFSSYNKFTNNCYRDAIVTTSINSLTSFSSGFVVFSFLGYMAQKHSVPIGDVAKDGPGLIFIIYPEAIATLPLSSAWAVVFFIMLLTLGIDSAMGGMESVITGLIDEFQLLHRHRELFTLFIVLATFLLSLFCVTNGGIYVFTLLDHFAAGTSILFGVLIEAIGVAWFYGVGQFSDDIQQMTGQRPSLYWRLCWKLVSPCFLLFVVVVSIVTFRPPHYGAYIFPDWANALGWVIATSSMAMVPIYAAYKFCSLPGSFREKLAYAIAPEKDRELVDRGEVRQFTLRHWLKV

[3] = target: T2, norepinephrine transporter; assay: NE uptake: displacement of norephinephrine ligands in vitro (methods of Galli et al.); assay type: binding
dopamine transporter = dopamine transporter (Homo sapiens, UniProt Q01959); assay: DA uptake: displacement of dopamine ligands in vitro (methods of Gu et al.); conditions: DA Uptake, Uptake Profile (IC50, nM), displacement of dopamine ligands in vitro
Chain of dopamine transporter (Q01959 whole entry): as above

rat = assay: Acute toxicity assessment, maximum tolerated dose i.v., rat; assay type: in vivo; conditions: rats
Method: (§1) An in vivo evaluation was carried out to determine the maximum tolerated dose of numerous test compounds in two animal species (mouse and rat). The compounds were administered i.v. and the animals were then observed for 72 h. Compounds 114, 115, 113, 110, 124, 125, 129, and 130 were solubilized in 5% dextrose (w/v)/polyethylene glycol 400 (4:1 v/v). Compounds 126, 127, 131, and 132 were solubilized in 10% hydroxypropyl-β-cyclodextrin (w/v).

mouse = assay: Acute toxicity assessment, maximum tolerated dose i.v., mouse; assay type: in vivo; conditions: mice
Method: as §1

serotonin transporter [4] = target: T1, serotonin transporter; assay: Functional activity, serotonin uptake inhibition in human HEK-293 cell lines; assay type: cell-based; design: expressed in transfected cells; host or cells: HEK-293
rats = assay: Behavioral despair assay in rats, 3 i.p. injections (Example 143); assay type: in vivo, rat; conditions: 30 mg/kg, 3 i.p. injections 24 h, 5 h and 1 h before test
Description: The objective of this study was to assess the antidepressant effects of test compounds 124, 125, 126, and 127 in the behavioral despair assay in rats according to the methods described by Porsolt R. D., Anton G., Blavet N., Jalfre M., Behavioural despair in rats: a new model sensitive to antidepressant treatment, Eur. J. Pharmacol., 1978, 47, 379-391. The animals were preconditioned in a pretest session, where the rats were individually forced to swim inside a vertical plexiglass cylinder containing water maintained at 19-20° C. After 15 minutes in the water, they were allowed to dry for 15 minutes in a heated enclosure. Twenty four hours later, they were replaced in the cylinder and the total duration of immobility was measured during a 5 minute test (test session). The test compounds and vehicle were administered as a series of 3 intraperitoneal injections 24 h, 5 h and 1 h before the 5 minute test on the second day.
The results are expressed as the percentage of variation of the total duration of immobility calculated from the mean value of the vehicle-treated group (% variation=[(immobility duration of vehicle-immobility duration of test compound)/(immobility duration of vehicle)]×100%).

[5] = displacement of serotonin ligands in vitro, read-out: 5-HT Uptake, Uptake Profile (IC50)
[6] = NE Uptake, Uptake Profile (IC50, nM)
[7] = human HEK-293 cell lines, read-out: 5-HT Uptake, Functional Assays (antagonism, EC50)
[8] = read-out: NE Uptake, Uptake Profile (IC50)
[9] = 5-HT Uptake, Uptake Profile (IC50, nM)

T1 sequence (P31645 whole entry): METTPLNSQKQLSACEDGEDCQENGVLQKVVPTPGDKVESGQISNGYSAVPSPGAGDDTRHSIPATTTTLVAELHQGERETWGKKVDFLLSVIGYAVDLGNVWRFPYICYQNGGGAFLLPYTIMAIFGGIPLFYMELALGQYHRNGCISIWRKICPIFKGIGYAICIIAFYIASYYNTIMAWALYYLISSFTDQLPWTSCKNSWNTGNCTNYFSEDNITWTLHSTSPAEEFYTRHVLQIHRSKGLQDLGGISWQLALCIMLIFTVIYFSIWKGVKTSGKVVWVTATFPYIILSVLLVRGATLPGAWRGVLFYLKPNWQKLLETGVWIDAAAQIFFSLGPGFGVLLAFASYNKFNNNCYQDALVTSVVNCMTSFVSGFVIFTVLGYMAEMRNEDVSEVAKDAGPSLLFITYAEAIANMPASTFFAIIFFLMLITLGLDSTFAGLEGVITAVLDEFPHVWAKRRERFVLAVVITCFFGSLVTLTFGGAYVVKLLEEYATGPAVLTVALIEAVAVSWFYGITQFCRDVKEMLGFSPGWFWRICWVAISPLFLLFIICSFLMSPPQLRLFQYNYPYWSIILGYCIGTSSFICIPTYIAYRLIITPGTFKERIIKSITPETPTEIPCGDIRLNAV

Row | SMILES | IC50 (serotonin transporter [1]; [5]) [nM] | EC50 [2] [µM] | EC50 (DAT) [µM] | IC50 [3, 6] [nM] | IC50 (dopamine transporter) [nM] | EC50 (serotonin transporter [4]; [7]) [nM] | also measured
1 | OC[C@H]1[C@@H](COc2ccc(C(F)(F)F)cc2)CCCN1CC1(c2ccc(Cl)cc2)CCC1 (racemic) [compound 82, cis-[1-[1-(4-chloro-phenyl)-cyclobutylmethyl]-3-(4-trifluoromethyl-phenoxymethyl)-piperidin-2-yl]-methanol] | < 1000 | < 1 | < 0.1 | < 1000 | < 100 |  | 
2 | OC[C@H]1[C@@H](COc2ccc(C(F)(F)F)cc2)CCCN1CC1(c2ccc(Cl)cc2)CCC1 (single isomer, unassigned) [compound 131, cis-[1-[1-(4-chloro-phenyl)-cyclobutylmethyl]-3-(4-trifluoromethyl-phenoxymethyl)-piperidin-2-yl]-methanol] | < 1000 |  |  | < 1000 | < 100 |  | tolerability and mortality after 72 h (rat; 30 mg/kg i.v.): well tolerated; tolerability and mortality after 72 h (mouse; 30 mg/kg i.v.): well tolerated
3 | OC[C@H]1[C@@H](COc2ccc(C(F)(F)F)cc2)CCCN1CC1(c2ccc(Cl)cc2)CCC1 (single isomer, unassigned) [compound 132, cis-[1-[1-(4-chloro-phenyl)-cyclobutylmethyl]-3-(4-trifluoromethyl-phenoxymethyl)-piperidin-2-yl]-methanol] | < 1000 |  |  | < 100 | < 10 |  | tolerability and mortality after 72 h (rat; 30 mg/kg i.v.): well tolerated; tolerability and mortality after 72 h (mouse; 30 mg/kg i.v.): well tolerated
4 | OC(CN1CCCC(CCc2ccccc2)C1)c1ccc(Cl)cc1 (single isomer, unassigned) [compound 143, 1-(4-Chloro-phenyl)-2-(3-phenethyl-piperidin-1-yl)-ethanol] | < 10 |  |  | < 100 | < 100 |  | tolerability and mortality after 72 h (rat; 5 mg/kg i.v.): tolerated; tolerability and mortality after 72 h (mouse; 5 mg/kg i.v.): tolerated
5 | OC(CN1CCCC(CCc2ccccc2)C1)c1ccc(Cl)cc1 (single isomer, unassigned) [compound 144, 1-(4-Chloro-phenyl)-2-(3-phenethyl-piperidin-1-yl)-ethanol] | < 10 |  |  | < 100 | < 10 |  | tolerability and mortality after 72 h (rat; 5 mg/kg i.v.): tolerated; tolerability and mortality after 72 h (mouse; 5 mg/kg i.v.): tolerated
6 | OC(CN1CCCC(COc2ccc(C(F)(F)F)cc2)C1)C1(c2ccccc2OC(F)(F)F)CCC1 (single isomer, unassigned) [compound 224, 1-[1-(2-Trifluoromethoxy-phenyl)-cyclobutyl]-2-[3-(4-trifluoromethyl-phenoxymethyl)-piperidin-1-yl]-ethanol] | > 1000 | > 1 | > 1 |  | > 1000 | < 1000 | IC50 [3, 8]: > 1000 nM
7 | OC(CN1CCCC(COc2ccc(C(F)(F)F)cc2)C1)C1(c2ccccc2OC(F)(F)F)CCC1 (single isomer, unassigned) [compound 225, 1-[1-(2-Trifluoromethoxy-phenyl)-cyclobutyl]-2-[3-(4-trifluoromethyl-phenoxymethyl)-piperidin-1-yl]-ethanol] | < 1000 |  | > 1 |  | < 10 | > 1000 | EC50 ([2]; read-out: NE Uptake, Functional Assays (antagonism, EC50), MDCK cell lines): > 1 µM; IC50 [3, 8]: > 1000 nM
8 | CN(C)CCCN1c2ccccc2CCc2ccccc21 [Imipramine] |  |  |  |  |  |  | % variation of the total duration of immobility (rats): 55%
9 | OCC1CCCN(CC2(c3ccc(Cl)cc3)CCC2)C1 (stereo not shown) [compound 2] |  |  | < 0.1 | > 1000 | < 1000 |  | IC50 (serotonin transporter [1]; [9]): > 1000 nM
10 | FC(F)(F)c1ccc(OCC2CCCN(CC3(c4ccc(Cl)cc4)CCC3)C2)cc1 (stereo not shown) [compound 7] |  |  | < 0.1 | > 1000 | < 100 |  | IC50 (serotonin transporter [1]; [9]): > 1000 nM
11 | Clc1ccc(C2(CN3CCC[C@@H](CNc4ccccc4)C3)CCC2)cc1 [compound 28, {1-[1-(4-Chloro-phenyl)-cyclobutylmethyl]-piperidin-3-R-ylmethyl}-phenyl-amine] | < 1000 | < 1 | < 0.1 | < 1000 | < 1000 | < 1000 | 
12 | Clc1ccc(C2(CN3CCCC(COc4ccc5c(c4)OCO5)C3)CCC2)cc1 (stereo not shown) [compound 83] | < 1000 | < 1 | < 0.01 | < 1000 | < 100 | < 100 | 
13 | Fc1ccc(OCC2CCCN(CC3(c4ccc(Cl)cc4)CCC3)C2)cc1 (stereo not shown) [compound 86, 1-[1-(4-Chloro-phenyl)-cyclobutylmethyl]-3-(4-fluoro-phenoxmethyl)-piperidine] | < 1000 | < 1 | < 0.01 | < 1000 | < 100 | < 1000 | 
14 | CC(Oc1ccc(C(F)(F)F)cc1)C1CCCN(CC2(c3ccc(Cl)cc3)CCC2)C1 (stereo not shown) [compound 99, 1-[1-(4-chloro-phenyl)-cyclobutylmethyl]-3-[1-(4-trifluoromethyl-phenoxy)-ethyl]-piperidine] | < 1000 | < 1 | < 0.01 | < 1000 | < 100 | > 1000 | 
15 | FC(F)(F)c1ccc(OCC2CN(CC3(c4ccc(Cl)cc4)CCC3)CCO2)cc1 (stereo not shown) [compound 102] |  | < 0.01 | < 0.01 | > 1000 | < 100 |  | IC50 (serotonin transporter [1]; [9]): > 1000 nM; EC50 (serotonin transporter [4]; 5-HT Uptake, Functional Assays (antagonism, EC50, nM)): > 1000 nM
16 | O=C(CN1CCC[C@H](COc2ccc(C(F)(F)F)cc2)C1)C1(c2ccc(Cl)cc2)CCC1 [compound 123, S-1-[1-(4-Chloro-phenyl)-cyclobutyl]-2-[3-(4-trifluoromethyl-phenoxymethyl)-piperidin-1-yl]-ethanone] | < 1000 | < 1 | < 0.01 | < 1000 | < 10 | < 1000 | 
17 | O=C(CN1CCC[C@@H](COc2ccc(C(F)(F)F)cc2)C1)C1(c2ccc(Cl)cc2)CCC1 [compound 128, S-1-[1-(4-Chloro-phenyl)-cyclobutyl]-2-[3-(4-trifluoromethyl-phenoxymethyl)-piperidin-1-yl]-ethanone] | < 1000 | < 1 | < 0.01 | < 1000 | < 100 | < 1000 | 
18 | CC(CN1CCCC(COc2ccc(C(F)(F)F)cc2)C1)C(O)c1ccc(Cl)cc1 (stereo not shown) [compound 218, 1-(4-Chloro-phenyl)-2-methyl-3-[3-(4-trifluoromethyl-phenoxymethyl)-piperidin-1-yl]-propan-1-ol] | < 1000 |  |  | > 1000 | < 10 |  | 
19 | COc1ccc2[nH]cc(CCN3CCCC(COc4ccc(C(F)(F)F)cc4)C3)c2c1 (stereo not shown) [compound 220, 5-Methoxy-3-{2-[3-(4-trifluoromethyl-phenoxymethyl)-piperidin-1-yl]-ethyl}-1H-indole] | < 100 |  |  | < 1000 | < 1000 |  | 
20 | OC(CN1CCCC(COc2ccc(C(F)(F)F)cc2)C1)c1c[nH]c2ccc(Cl)cc12 (stereo not shown) [compound 222, 1-(5-Chloro-1H-indol-3-yl)-2-[3-(4-trifluoromethyl-phenoxymethyl)-piperidin-1-yl]-ethanol] | < 1000 |  |  | > 1000 | > 1000 |  | 
21 | NCC1CCCN(CC2(c3ccc(Cl)cc3)CCC2)C1 (stereo not shown) [compound 230, C-{1-[1-(4-Chloro-phenyl)-cyclobutylmethyl]-piperidin-3-yl}-methylamine] | > 1000 |  |  |  | < 100 |  | IC50 [3, 8]: > 1000 nM
22 | COc1ccccc1C1(C(O)CN2CCCC(COc3ccc4c(c3)OCO4)C2)CCC1 (stereo not shown) [compound 232, 2-[3-(Benzo[1,3]dioxol-5-yloxymethyl)-piperidin-1-yl]-1-[1-(2-methoxy-phenyl)-cyclobutyl]-ethanol] | < 1000 |  |  | < 1000 | < 1000 |  | 
23 | OC(CN1CCC[C@@H](CCc2ccccc2)C1)c1ccc(Cl)cc1 (stereo partly shown) [compound 233] | < 10 | < 0.01 | < 0.01 | < 100 | < 10 | < 10 | 
